The text below walks through data of patent EP3952873B1 (priority 2019, dated 2020).

One data set has as its target T1, recombinant CaMK2a (Rattus norvegicus, UniProt P11275).
T1 construct: host or cells: HEK293T
Kind of data set: [3H]HOCPCA binding to recombinant CaMK2a expressed in HEK293T cells. Here is the method:
Protein concentration was determined using the Bradford protein assay. […] The dried filters were added scintillation liquid and radioactivity measured on a Tricarb 2100 Scintillation counter (Packard).

The format of data set [1] is in vitro ADME, mouse. The conditions noted are these: during the metabolic stability study. Here is the method:
Metabolic stability analysis was performed on a Bruker Avance Ultra High Performance Liquid Chromatography (UHPLC) (Bruker Daltonik, Bremen, Germany) equipped with a CTC-PAL-xt autosampler with cooled sample compartments (10 °C) and a column oven held at 40 °C. The UHPLC eluate was directed to a Bruker Evoq Elite triple quad-ropole MS equipped with a heated electrospray ionization source operated in positive ionization mode. Separation of 15 µL sample was obtained using a Phenomenex (Phenomenex, Torrance, CA, USA) Kinetex XB-C18 column (50 mm × 2.1 mm i.d., 1.7 µm particle size) equipped with a guard column. The analytes were separated using a solvent system consisting of water/acetonitrile (95:5, v/v) (eluent A) and water/acetonitrile (5:95, v/v) (eluent B); both acidified with 0.1% formic acid. The eluent flow rate was maintained at 0.4 mL/min with the following gradient elution profile: 0 min: 0% B; 5 min: 100% B; 6 min: 100% B, followed by three min equilibration at 0% B. Two ion transitions were monitored for all analytes and internal standard.
The mouse liver microsome assay was performed by transferring 25 µL of a 20 µM solution of the test compound (0.5% DMSO), dissolved in potassium phosphate monobasic buffer (pH 7.4) containing 3 mM MgCl2, to 9 wells in a microtiter plate. To each well, […] of a 0.5 mg/mL mouse liver (Sigma Aldrich) in buffer was added, and the microtiter plate were pre-incubated for 5 min at 37 °C in a plate shaker at 600 rpm. After pre-incubation, 50 µL 37 °C NADPH regenerating system, consisting of 2 mM NADP+, 10mM glucose-6-phosphate, and 2 U/mL glucose-6-phosphate dehydrogenase dissolved in buffer, was added to start the assay. In triplicates, immediately after adding the NADPH solution, 75 µL was transferred to an Eppendorf tube, containing […] ice-cold acetonitrile with 400 ng/mL internal standard (7). Similarly, samples were prepared after 30 min and 60 min incubation at 37 °C. The samples were vortexed for 30 seconds and centrifuged at 16,000 × g for 10 minutes before analyzing the supernatant. The individual analyte responses were normalized to the internal standard. Diazepam was used as positive control.
The mouse […] assay was performed by transferring 75 µL of a 10 µM solution of the test compound (0.5% DMSO), dissolved in PBS buffer (pH 7.4), to 9 wells in a microtiter plate. To each well, 75 µL mouse plasma, harvested from in-house mice into K2-EDTA tubes and centrifuged at 1,600 × g, was added. […]
The metabolic stabilities of JON-11 and the prodrugs 1a, 8-12, 19 and 20 were determined in vitro in rat plasma and rat liver microsomes. […] The corresponding loss of prodrug compounds and formation of parent drug JON-11 was determined by UHPLC-MS.

Another data set has as its target T2, GABAB receptor (Rattus norvegicus, UniProt Q9Z0U4).
T2 construct: from tissue; host or cells: rat brain synaptic membranes
Briefly: GABAB binding assay with [3H]GABA, rat brain synaptic membranes. The conditions noted are these: at 100 µM. The text has this: (§1) To assess affinity of JON-11 for the GABAB receptor, we employed a GABAB binding assay using rat brain synaptic membranes (Wellendorph et al., 2005). […] B) JON-11 was further assessed for functional activity using CHO cells stably expressing GABAB(1b,2) receptors (Rajalu et al., 2015).

In the next data set the target is T3, GABAB(1b,2) receptors (Homo sapiens, UniProt Q9UBS5).
T3 construct: expressed in transfected cells
Briefly: GABAB functional assay in CHO cells. In kind it is cell-based. The conditions noted are these: CHO cells stably expressing GABAB(1b,2), concentrations up to 300 µM.
From the text: as §1

The test system of another data set is mice. In kind it is in vivo. The following applies: 100 mg/kg i.p. The procedure: To determine locomotor effects (e.g. sedation or hyperactivity) compounds were assessed after systemic administration to mice. Mice (typically n=5-8) were administered selected compounds, e.g. JON-11 and pro-JON-11 and vehicle controls, and placed in transparent cages (L: 37 cm x W: 21 cm x H: 15 cm). Locomotor activity were measured via a camera mounted above the arena. Mice will be recorded for 45 min and data collected in 5-min intervals. Data will be stored on a computer equipped with Ethovision XT (Noldus).

For another data set, the system named is DTA mouse model. Kind of data set: DTA mouse model of narcolepsy (EEG/EMG, cataplexy). In kind it is in vivo. The following applies: after 8-11 days of chronic administration, 100 mg/kg i.p. The procedure:
Using the DTA mouse model (Tabuchi et al., 2014) we determined changes in sleep-wake EEG/EMG patterns (including cataplexy) at different time points (1 day and 8-11 days) under the influence of JON-11. After drug cessation day 14, EEG/EMG changes were mapped up to day 33. Under anesthesia with isoflurane (2% to 2.5% in O2) electrodes were placed in the scull and neck muscles of the mice. After 5-10 days recovery the electrodes are connected to a recording system, and EEG/EMG signals are recorded with synchronised video recordings. From the data, sleep/wake parameters and cataplexy episodes are scored and calculated. Analyses were performed by an observer blinded to the treatment groups.

The subject of another data set is GABAA receptors. Kind of data set: Affinity for GABAA receptors. In kind it is binding.

The structures appear in SMILES notation. Entries after “also recorded” stand apart in the source; their conditions may differ.

T3 sequence (Q9UBS5 1-844 isoform Q9UBS5-2): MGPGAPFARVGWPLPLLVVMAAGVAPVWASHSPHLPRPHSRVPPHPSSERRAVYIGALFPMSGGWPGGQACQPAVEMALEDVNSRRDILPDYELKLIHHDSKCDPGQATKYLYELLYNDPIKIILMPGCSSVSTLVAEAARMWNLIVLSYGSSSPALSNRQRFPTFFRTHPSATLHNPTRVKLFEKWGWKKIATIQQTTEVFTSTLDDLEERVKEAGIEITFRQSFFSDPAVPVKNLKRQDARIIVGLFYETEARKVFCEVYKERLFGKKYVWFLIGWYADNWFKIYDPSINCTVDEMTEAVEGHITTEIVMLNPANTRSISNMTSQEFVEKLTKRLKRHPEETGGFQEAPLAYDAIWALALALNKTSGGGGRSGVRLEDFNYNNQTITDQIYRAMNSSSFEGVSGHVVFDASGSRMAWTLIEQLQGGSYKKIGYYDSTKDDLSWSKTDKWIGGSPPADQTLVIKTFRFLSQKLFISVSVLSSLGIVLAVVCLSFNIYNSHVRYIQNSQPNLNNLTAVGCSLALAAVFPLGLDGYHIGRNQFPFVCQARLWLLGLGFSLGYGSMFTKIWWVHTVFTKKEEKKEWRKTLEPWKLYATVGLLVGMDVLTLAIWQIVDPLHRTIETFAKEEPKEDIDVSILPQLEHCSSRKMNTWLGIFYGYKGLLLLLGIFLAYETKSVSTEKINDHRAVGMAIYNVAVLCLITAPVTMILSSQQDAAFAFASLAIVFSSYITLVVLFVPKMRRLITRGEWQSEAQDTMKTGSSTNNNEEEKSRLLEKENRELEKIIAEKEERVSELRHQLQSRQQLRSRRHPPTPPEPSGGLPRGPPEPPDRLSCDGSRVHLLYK
T3 sequence (O75899 42-941 partner): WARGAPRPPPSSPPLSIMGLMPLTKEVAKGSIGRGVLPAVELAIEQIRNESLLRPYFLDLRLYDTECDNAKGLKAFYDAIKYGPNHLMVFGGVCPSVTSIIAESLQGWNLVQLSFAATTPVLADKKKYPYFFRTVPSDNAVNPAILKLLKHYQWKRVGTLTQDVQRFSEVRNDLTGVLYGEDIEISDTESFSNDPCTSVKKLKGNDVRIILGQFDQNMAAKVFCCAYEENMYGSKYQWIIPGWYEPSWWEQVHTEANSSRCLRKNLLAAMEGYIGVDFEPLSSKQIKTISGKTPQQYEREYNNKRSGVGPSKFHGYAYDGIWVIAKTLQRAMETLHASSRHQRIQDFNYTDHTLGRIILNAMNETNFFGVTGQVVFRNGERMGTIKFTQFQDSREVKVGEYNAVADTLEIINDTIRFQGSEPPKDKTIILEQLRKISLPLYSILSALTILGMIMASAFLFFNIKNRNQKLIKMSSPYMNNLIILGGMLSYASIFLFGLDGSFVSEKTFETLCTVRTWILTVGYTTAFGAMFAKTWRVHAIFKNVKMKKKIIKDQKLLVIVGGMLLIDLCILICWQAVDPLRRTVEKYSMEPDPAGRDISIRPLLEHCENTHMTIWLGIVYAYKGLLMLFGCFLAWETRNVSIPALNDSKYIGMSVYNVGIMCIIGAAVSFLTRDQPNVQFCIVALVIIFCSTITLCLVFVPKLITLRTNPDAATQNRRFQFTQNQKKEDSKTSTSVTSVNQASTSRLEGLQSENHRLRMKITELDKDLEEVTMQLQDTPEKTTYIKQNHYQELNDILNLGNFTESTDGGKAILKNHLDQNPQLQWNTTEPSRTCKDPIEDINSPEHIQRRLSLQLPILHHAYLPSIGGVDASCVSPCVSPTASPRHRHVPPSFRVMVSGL
T1 sequence (P11275 whole entry): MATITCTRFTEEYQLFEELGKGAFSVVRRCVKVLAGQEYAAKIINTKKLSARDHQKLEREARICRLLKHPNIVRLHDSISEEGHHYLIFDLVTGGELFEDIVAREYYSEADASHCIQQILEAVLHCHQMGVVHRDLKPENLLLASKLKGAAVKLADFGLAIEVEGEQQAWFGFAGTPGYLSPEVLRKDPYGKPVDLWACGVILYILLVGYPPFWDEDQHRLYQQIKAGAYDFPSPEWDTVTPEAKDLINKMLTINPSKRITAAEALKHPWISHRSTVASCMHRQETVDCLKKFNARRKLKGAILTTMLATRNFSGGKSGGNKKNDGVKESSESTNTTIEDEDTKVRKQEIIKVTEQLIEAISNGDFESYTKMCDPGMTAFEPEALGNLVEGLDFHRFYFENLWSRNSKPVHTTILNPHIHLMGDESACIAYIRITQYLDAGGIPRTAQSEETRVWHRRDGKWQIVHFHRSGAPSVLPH
T2 sequence (Q9Z0U4 20-960): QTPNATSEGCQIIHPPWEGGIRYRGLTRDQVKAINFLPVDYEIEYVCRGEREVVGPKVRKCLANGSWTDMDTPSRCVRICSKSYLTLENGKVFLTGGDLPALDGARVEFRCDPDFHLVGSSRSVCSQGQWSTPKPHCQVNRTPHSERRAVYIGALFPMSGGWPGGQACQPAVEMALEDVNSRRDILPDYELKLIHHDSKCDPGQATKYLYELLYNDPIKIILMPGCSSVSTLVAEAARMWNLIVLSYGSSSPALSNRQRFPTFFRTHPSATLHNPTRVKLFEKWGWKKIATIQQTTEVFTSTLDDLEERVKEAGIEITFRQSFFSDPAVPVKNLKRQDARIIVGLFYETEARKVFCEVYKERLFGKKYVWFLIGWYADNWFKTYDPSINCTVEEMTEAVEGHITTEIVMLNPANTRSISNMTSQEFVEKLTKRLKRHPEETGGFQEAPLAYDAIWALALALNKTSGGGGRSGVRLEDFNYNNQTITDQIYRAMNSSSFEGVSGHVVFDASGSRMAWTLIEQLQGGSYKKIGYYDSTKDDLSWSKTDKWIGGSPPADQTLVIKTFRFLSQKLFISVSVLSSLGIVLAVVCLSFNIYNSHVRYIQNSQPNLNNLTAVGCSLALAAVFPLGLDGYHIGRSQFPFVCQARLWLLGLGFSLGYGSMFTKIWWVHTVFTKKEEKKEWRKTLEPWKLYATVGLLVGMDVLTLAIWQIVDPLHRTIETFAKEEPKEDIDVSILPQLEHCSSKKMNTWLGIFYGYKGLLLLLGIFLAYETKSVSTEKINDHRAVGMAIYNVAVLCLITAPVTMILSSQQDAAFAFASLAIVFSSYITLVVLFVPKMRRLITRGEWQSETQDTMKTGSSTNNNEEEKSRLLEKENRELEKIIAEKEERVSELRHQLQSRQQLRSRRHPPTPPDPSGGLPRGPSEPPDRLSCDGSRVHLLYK
T2 sequence (O88871 41-940 partner): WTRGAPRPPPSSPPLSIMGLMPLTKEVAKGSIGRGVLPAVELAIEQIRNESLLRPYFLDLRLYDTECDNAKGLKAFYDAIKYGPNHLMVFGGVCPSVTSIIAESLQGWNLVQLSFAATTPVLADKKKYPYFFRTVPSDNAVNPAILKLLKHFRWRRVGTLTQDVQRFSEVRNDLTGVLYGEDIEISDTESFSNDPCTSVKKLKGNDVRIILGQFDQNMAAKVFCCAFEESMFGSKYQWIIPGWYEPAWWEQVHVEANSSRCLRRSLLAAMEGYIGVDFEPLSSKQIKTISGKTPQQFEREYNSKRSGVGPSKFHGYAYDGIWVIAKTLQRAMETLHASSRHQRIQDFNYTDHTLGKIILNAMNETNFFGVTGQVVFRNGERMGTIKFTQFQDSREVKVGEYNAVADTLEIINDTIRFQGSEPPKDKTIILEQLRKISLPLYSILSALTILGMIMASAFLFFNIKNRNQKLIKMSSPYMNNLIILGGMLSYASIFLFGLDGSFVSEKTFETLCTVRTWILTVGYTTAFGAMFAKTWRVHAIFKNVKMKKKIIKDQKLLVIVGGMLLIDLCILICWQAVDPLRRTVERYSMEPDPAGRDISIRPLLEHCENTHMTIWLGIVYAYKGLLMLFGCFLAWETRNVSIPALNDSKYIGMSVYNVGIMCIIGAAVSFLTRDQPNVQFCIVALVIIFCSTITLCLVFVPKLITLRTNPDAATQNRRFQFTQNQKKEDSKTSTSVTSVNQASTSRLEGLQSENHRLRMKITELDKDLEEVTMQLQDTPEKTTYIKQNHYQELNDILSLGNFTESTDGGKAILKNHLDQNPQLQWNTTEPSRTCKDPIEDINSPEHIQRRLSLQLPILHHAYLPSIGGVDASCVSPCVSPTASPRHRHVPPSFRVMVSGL

Broadly, the Ki is a measure of affinity in units of concentration, obtained from inhibition or displacement. For `O=C(O)Cc1cn2nc(-c3ccc(Cl)cc3)ccc2n1` [JON-11, 2-(6-(4-Chlorophenyl)imidazo[1,2-b]pyridazin-2-yl)acetic acid], the Ki on recombinant CaMK2a (5 nM [3H]HOCPCA, whole cell lysates of CaMK2a-transfected HEK293T cells) stood at 3.5 µM. The “higher affinity compared to GHB” value at recombinant CaMK2a (ratio of Ki values, [3H]HOCPCA binding) is reported as 14 x. Moreover, the “Chemical or enzymatic degradation” value in data set [1] is “not observed”. Also, the “ability to compete with [3H]GABA” value on GABAB receptor was “no ability to compete”. For the same compound, the “agonistic activity at recombinant GABAB receptors” value at GABAB(1b,2) receptors is reported as “not a GABAB agonist; also recorded: Lack of agonistic activity”. Also, the locomotor activity result in the data set on mice is “does not affect locomotor activity”. The “number of cataplexy attacks” value in the data set on DTA mouse model is on record as “significantly decreases”. In addition, the “affinity for GABAA receptors” value in the data set on GABAA receptors is listed as “weak affinity”.
